In ChEMBL document CHEMBL2169838, “Synthesis and biological evaluation of the 1-arylpyrazole class of σ(1) receptor antagonists: identification of 4-{2-[5-methyl-1-(naphthalen-2-yl)-1H-pyrazol-3-yloxy]ethyl}morpholine (S1RA, E-52862)” (J Med Chem, 2012):
In brackets after ≈: the same amount, converted by molar mass.

Experiments:
[1] = Binding affinity to rat sigma 2 receptor
[2] = Lipophilicity, log D of the compound by PH-metrivc technique; type: physicochemical; settings: octanol/water
Mus musculus [3] = assay: Inhibition of capsaicin-induced mechanical hypersensitivity in CD1 mouse assessed as paw withdrawal latency at 32 mg/kg, ip administered 15 mins prior to capsaicin challenge measured 30 mins post capsaicin challenge; type: functional; settings: route intraperitoneal
Mus musculus [4] = assay: Neurotoxicity in CD1 mouse assessed as motor impairment at 32 to 64 mg/kg, ip measured after 30 to 180 mins by rotarod test; type: toxicity, organism-based; design: route intraperitoneal; settings: in vivo
Cytochrome P450 2C9 [5] = target: T1, Cytochrome P450 2C9 (Homo sapiens, UniProt P11712); assay: Inhibition of human recombinant CYP2C9; type: ADME
T1 sequence (P11712 whole entry): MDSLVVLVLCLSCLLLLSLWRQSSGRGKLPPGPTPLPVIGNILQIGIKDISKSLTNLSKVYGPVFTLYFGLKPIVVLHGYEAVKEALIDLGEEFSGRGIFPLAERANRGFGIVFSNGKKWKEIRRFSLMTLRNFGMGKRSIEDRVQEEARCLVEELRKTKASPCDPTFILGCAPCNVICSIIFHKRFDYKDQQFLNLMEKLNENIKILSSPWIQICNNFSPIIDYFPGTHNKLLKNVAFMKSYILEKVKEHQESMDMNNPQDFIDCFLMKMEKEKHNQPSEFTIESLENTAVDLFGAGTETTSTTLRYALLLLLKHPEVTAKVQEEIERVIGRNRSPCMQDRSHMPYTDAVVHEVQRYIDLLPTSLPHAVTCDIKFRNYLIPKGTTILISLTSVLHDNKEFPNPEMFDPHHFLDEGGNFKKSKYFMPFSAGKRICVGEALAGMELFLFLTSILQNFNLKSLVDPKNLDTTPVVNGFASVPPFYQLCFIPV

[6] = Intrinsic clearance in human liver microsomes assessed as per mg of protein at 10 uM; type: ADME, Microsome; settings: read-out: CLH
Cytochrome P450 2E1 [7] = target: T2, Cytochrome P450 2E1 (Homo sapiens, UniProt P05181); assay: Inhibition of human recombinant CYP2E1; type: ADME
T2 sequence (P05181 whole entry): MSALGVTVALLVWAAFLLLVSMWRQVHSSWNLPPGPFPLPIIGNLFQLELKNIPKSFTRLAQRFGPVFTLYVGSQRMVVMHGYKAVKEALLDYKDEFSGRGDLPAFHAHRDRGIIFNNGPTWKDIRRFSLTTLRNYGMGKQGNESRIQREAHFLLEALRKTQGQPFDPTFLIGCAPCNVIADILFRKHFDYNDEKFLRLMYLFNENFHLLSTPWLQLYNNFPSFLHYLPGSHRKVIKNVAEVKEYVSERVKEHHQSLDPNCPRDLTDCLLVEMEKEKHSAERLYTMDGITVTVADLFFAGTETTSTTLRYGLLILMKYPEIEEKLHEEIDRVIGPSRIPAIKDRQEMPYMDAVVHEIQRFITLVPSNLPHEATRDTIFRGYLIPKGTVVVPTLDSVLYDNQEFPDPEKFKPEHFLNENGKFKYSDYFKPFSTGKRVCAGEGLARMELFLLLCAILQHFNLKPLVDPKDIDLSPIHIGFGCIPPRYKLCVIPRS

[8] = target: T3, 5-hydroxytryptamine receptor 2B (Homo sapiens, UniProt P41595); assay: Binding affinity to human 5HT2B receptor
T3 sequence (P41595 whole entry): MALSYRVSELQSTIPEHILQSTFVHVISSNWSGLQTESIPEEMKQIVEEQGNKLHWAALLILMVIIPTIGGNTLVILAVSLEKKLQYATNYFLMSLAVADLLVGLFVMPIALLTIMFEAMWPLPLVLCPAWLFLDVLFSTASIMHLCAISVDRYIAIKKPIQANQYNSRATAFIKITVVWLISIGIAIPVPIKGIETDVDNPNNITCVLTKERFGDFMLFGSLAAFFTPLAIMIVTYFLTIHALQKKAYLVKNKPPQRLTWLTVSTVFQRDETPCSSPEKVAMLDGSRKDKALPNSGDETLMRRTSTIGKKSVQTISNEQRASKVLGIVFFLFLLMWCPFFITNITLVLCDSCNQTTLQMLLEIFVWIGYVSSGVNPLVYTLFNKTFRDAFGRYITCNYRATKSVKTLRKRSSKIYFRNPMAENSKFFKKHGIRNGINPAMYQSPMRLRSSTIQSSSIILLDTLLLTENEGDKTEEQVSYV

Mus musculus [9] = assay: Analgesic activity in CD1 mouse assessed as inhibition of capsaicin-induced mechanical hypersensitivity at 16 mg/kg, ip administered 15 mins prior to capsaicin challenge measured 30 mins post capsaicin challenge; type: functional; settings: route intraperitoneal
Cytochrome P450 2C9 [10] = target: T1, Cytochrome P450 2C9; assay: Inhibition of CYP2C9 in human liver microsomes; type: ADME, Microsome
Mus musculus [11] = assay: Antihyperalgesic activity in ip dosed CD1 mouse partial sciatic nerve ligation model assessed as inhibition of thermal hyperalgesia administered 45 mins by plantar test; type: functional
Mus musculus [12] = assay: Antiallodynic activity in ip dosed CD1 mouse partial sciatic nerve ligation model assessed as inhibition of mechanical allodynia administered 30 mins by von Frey test; type: functional
Cytochrome P450 2B6 [13] = target: T4, Cytochrome P450 2B6 (Homo sapiens, UniProt P20813); assay: Inhibition of CYP2B6 in human liver microsomes; type: ADME, Microsome
T4 sequence (P20813 whole entry): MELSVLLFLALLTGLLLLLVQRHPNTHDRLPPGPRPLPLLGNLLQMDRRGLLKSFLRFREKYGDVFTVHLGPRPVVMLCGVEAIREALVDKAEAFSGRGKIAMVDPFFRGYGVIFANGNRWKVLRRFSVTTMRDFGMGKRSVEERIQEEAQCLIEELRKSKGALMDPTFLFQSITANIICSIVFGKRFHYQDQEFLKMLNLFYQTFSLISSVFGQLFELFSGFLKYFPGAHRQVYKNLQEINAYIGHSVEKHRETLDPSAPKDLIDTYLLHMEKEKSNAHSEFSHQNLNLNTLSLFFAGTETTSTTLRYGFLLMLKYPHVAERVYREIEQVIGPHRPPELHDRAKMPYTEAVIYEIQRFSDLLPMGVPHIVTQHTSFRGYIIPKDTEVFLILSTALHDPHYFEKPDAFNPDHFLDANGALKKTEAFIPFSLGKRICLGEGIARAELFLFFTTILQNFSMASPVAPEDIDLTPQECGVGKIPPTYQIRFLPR

[14] = Dissociation constant, pKa of the compound; type: physicochemical
[15] = Displacement of [3H]di-o-tolylguanidine from sigma 2 receptor in guinea pig brain membranes after 120 mins by scintillation counter; type: cell membranes, Cavia porcellus, Membrane
[16] = Apparent permeability across human Caco2 cells at 10 uM after 2 hrs; type: ADME, cell-based; settings: Caco-2
[17] = AUC in CD1 mouse at 10 mg/kg, po; type: ADME, organism-based; design: dose 10 mg/kg, route oral; settings: plasma
Cytochrome P450 2C19 [18] = target: T5, Cytochrome P450 2C19 (Homo sapiens, UniProt P33261); assay: Inhibition of human recombinant CYP2C19; type: ADME
T5 sequence (P33261 whole entry): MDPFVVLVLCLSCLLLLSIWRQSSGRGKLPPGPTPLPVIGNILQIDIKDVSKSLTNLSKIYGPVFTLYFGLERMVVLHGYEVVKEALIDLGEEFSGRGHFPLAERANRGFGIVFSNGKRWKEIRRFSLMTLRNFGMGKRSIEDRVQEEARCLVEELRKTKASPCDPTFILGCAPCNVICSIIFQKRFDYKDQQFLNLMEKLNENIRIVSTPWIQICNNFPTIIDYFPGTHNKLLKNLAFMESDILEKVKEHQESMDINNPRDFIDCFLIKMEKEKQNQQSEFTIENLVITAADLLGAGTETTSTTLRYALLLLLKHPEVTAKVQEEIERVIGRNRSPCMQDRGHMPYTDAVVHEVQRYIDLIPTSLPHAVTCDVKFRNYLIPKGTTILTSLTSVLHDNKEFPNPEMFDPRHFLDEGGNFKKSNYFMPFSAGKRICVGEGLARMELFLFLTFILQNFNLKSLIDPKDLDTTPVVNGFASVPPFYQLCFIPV

Cytochrome P450 2D6 [19] = target: T6, Cytochrome P450 2D6 (Homo sapiens, UniProt P10635); assay: Inhibition of CYP2D6 in human liver microsomes; type: ADME, Microsome
T6 sequence (P10635 whole entry): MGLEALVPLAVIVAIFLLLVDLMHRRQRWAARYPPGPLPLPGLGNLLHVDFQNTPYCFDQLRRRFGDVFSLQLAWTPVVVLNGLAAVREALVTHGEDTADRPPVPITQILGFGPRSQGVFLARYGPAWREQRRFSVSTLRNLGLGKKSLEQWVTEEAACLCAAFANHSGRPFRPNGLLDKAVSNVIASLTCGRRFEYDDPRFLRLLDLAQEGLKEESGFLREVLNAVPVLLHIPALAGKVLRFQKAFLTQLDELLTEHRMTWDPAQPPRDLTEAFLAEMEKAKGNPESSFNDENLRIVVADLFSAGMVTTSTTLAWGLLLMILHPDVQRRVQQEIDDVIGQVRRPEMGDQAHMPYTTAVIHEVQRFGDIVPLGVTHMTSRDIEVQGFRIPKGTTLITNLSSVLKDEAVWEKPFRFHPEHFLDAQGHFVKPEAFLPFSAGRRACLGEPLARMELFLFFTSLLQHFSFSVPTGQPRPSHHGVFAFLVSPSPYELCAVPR

Cytochrome P450 2B6 [20] = target: T4, Cytochrome P450 2B6; assay: Inhibition of human recombinant CYP2B6; type: ADME
Cytochrome P450 2E1 [21] = target: T2, Cytochrome P450 2E1; assay: Inhibition of CYP2E1 in human liver microsomes; type: ADME, Microsome
Cytochrome P450 2C19 [22] = target: T5, Cytochrome P450 2C19; assay: Inhibition of CYP2C19 in human liver microsomes; type: ADME, Microsome
Cytochrome P450 2C8 [23] = target: T7, Cytochrome P450 2C8 (Homo sapiens, UniProt P10632); assay: Inhibition of CYP2C8 in human liver microsomes; type: ADME, Microsome
T7 sequence (P10632 whole entry): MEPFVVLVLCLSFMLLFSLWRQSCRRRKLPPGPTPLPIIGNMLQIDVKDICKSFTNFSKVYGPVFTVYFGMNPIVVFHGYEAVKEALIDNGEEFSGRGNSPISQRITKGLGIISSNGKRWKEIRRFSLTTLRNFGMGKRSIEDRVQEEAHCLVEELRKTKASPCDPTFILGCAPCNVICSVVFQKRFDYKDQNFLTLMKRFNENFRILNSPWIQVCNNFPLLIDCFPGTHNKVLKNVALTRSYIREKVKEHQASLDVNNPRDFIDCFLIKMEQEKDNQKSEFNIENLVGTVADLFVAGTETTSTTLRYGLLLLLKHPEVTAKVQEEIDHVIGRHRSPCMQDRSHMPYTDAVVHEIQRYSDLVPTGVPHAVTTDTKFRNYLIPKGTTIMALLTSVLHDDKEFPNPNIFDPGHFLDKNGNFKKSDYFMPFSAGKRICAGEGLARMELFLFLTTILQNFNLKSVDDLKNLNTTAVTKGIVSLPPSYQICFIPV

[24] = target: T3, 5-hydroxytryptamine receptor 2B; assay: Antagonist activity at human 5HT2B receptor; type: functional
[25] = Partition coefficient, log P of the compound by PH-metrivc technique; type: physicochemical; settings: octanol/water
[26] = Thermodynamic solubility of the compound in phosphate buffer at pH 7.4; type: physicochemical; settings: read-out: Therm_solubility
Cytochrome P450 2D6 [27] = target: T6, Cytochrome P450 2D6; assay: Inhibition of human recombinant CYP2D6; type: ADME
Cytochrome P450 1A2 [28] = target: T8, Cytochrome P450 1A2 (Homo sapiens, UniProt P05177); assay: Inhibition of human recombinant CYP1A2; type: ADME
T8 sequence (P05177 whole entry): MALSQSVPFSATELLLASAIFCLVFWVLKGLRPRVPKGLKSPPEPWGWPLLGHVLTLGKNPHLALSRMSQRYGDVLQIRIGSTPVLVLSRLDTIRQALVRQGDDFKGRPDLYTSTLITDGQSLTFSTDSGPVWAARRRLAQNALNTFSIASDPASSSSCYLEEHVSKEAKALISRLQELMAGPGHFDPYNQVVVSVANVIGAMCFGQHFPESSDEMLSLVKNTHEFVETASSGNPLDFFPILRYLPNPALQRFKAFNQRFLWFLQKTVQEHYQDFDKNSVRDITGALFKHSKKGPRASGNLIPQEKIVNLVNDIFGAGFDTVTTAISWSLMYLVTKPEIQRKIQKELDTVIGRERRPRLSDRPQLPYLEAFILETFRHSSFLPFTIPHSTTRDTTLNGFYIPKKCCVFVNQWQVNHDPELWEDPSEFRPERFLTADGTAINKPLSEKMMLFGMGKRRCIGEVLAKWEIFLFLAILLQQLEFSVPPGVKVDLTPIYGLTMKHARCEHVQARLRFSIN

Cytochrome P450 2C8 [29] = target: T7, Cytochrome P450 2C8; assay: Inhibition of human recombinant CYP2C8; type: ADME
Mus musculus [30] = assay: Cmax in CD1 mouse at 10 mg/kg, po at 0.5 hrs; type: ADME, organism-based; design: dose 10 mg/kg, route oral; settings: in vivo
Cytochrome P450 1A2 [31] = target: T8, Cytochrome P450 1A2; assay: Inhibition of CYP1A2 in human liver microsomes; type: ADME, Microsome

- Ki [1]: 9.3 µM
- logD [2]: 3.4
- IC50 (Cytochrome P450 2C9 [5]): > 10 µM
- microsomal CLint at 10 µM [6]: 3 µL/min/mg
- IC50 (Cytochrome P450 2E1 [7]): > 10 µM
- Ki [8]: 0.328 µM
- IC50 (Cytochrome P450 2C9 [10]): > 10 µM
- IC50 (Cytochrome P450 2B6 [13]): > 10 µM
- pKa [14]: 6.5
- Ki [15]: > 1 µM
- Papp at 2 h, 10 µM [16]: 37 ×10⁻⁶ cm/s
- AUC [17]: 958 ng·h/mL
- IC50 (Cytochrome P450 2C19 [18]): > 10 µM
- IC50 (Cytochrome P450 2D6 [19]): > 10 µM
- IC50 (Cytochrome P450 2B6 [20]): > 10 µM
- IC50 (Cytochrome P450 2E1 [21]): > 10 µM
- IC50 (Cytochrome P450 2C19 [22]): > 10 µM
- IC50 (Cytochrome P450 2C8 [23]): > 10 µM
- IC50 [24]: 4.7 µM
- logP [25]: 3.5
- solubility thermodynamic [26]: 200 µg/mL (≈ 593 µM)
- IC50 (Cytochrome P450 2D6 [27]): > 10 µM
- IC50 (Cytochrome P450 1A2 [28]): > 10 µM
- IC50 (Cytochrome P450 2C8 [29]): > 10 µM
- Cmax (Mus musculus [30]): 62 ng/mL
- IC50 (Cytochrome P450 1A2 [31]): > 10 µM
SMILES: Cc1cc(OCCN2CCOCC2)nn1-c1ccc2ccccc2c1
- inhibition in vivo at 32 mg/kg (Mus musculus [3]): 62%
- Activity (Mus musculus [4]): Non-toxic
- inhibition in vivo at 16 mg/kg (Mus musculus [9]): 43%
- inhibition (Mus musculus [11]): Dose-dependent effect
- ED50 (Mus musculus [11]; 0.75 h): 18.8 mg/kg
- inhibition (Mus musculus [12]): Dose-dependent effect
- ED50 (Mus musculus [12]; 0.5 h): 23.4 mg/kg
